Results on 21 compounds are retold here after patent US11247965B2 (VenatoRx Pharmaceuticals, Inc., priority 2017, dated 2022).

Series [1] relates to HBV replication in HepAD38 cells. Kind of series: Anti-HBV activity in HepAD38 cells, extracellular HBV DNA by QPCR. Type of series: cell-based, HBV (genotype D, serotype ayw). The settings on record: Hepatitis B virus, HePAD38, 168 h, read-out: Anti-HBV EC50, HepAD38 cells, extracellular HBV DNA by QPCR, 7 days of incubation. Put shortly:
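Seven-day compound exposure (30 μM down to 10 nM, half-log steps) after tetracycline withdrawal induced HBV replication in HepAD38 cells. Extracellular viral DNA measured by QPCR (copies/mL via standard curve), normalised to DMSO wells; EC50 from 4-parameter non-linear regression.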

A short description of series [2]: In vitro cytotoxicity, MTT cell viability assay in HepG2 cells. Particulars: human, Cytotoxicity CC50. The format is cell-based. Summed up:
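CC50 values reflect loss of HepG2 viability after a 7-day exposure at 37 °C, 5% CO2. After 3-4 h with MTT, solubilized formazan was quantified at 492 nm relative to vehicle wells.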

Bounds are passed on as bounds.

The EC50 is the concentration needed to bring the measured effect to its halfway point. A word on the CC50: it is the concentration at which the toxic effect on the cells reaches its halfway point. Lower therefore signals greater toxicity to the cells. For `Cc1cc(NC(=O)c2ccc(F)c(C(F)(F)C(=O)N3C4CC[C@@H]3C[C@@H](C(=O)NCCO)C4)c2)ccc1F` [Example 258, (1R,3s,5S)-8-(2,2-difluoro-2-(2-fluoro-5-((4-fluoro-3-methylphenyl)carbamoyl)phenyl)acetyl)-N-(2-hydroxyethyl)-8-azabicyclo[3.2.1]octane-3-carboxamide], in series [1], the EC50 is under 5 µM. The same compound came in with a CC50 at 7 days in series [2] of over 30 µM.
The corresponding values for `Cc1cc(NC(=O)c2cc(C(F)(F)C(=O)NC(C)(C)C)cs2)ccc1F` [Example 157, 4-(2-(tert-butylamino)-1,1-difluoro-2-oxoethyl)-N-(4-fluoro-3-methylphenyl)thiophene-2-carboxamide] are 5 to 30 µM and 5 to 30 µM.
`Cc1cc(NC(=O)c2ccc(Cl)c(C(F)(F)C(=O)N3CCC(O)CC3)c2)ccc1F` [Example 17, 4-chloro-3-(1,1-difluoro-2-(4-hydroxypiperidin-1-yl)-2-oxoethyl)-N-(4-fluoro-3-methylphenyl)benzamide]: the EC50 in series [1] is under 5 µM. The half-maximal cytotoxic concentration (CC50) at 7 days in series [2] fell in the range of 5 to 30 µM.
The corresponding values for `O=C(Nc1ccc(F)c(F)c1)c1ccc(F)c(C(F)(F)C(=O)N[C@H]2CCOC2)c1` [Example 3, (S)-3-(1,1-difluoro-2-oxo-2-((tetrahydrofuran-3-yl)amino)ethyl)-N-(3,4-difluorophenyl)-4-fluorobenzamide] are 5 to 30 µM and 5 to 30 µM.
The corresponding values for `Cc1cc(NC(=O)c2cc(C(F)(F)C(=O)NC3(C)CCCOC3)n(C)c2)ccc1F` (stereo not drawn) [Example 133, 5-(1,1-difluoro-2-((3-methyltetrahydro-2H-pyran-3-yl)amino)-2-oxoethyl)-N-(4-fluoro-3-methylphenyl)-1-methyl-1H-pyrrole-3-carboxamide] are under 5 µM and over 30 µM.
Turning to `Cn1cc(NC(=O)c2ccc(F)c(C(F)(F)C(=O)N3[C@@H]4CC[C@H]3C[C@H](O)C4)c2)cn1` [Example 181, 3-(1,1-difluoro-2-((1R,3s,5S)-3-hydroxy-8-azabicyclo[3.2.1]octan-8-yl)-2-oxoethyl)-4-fluoro-N-(1-methyl-1H-pyrazol-4-yl)benzamide], the concentration giving a half-maximal response (EC50) in series [1] was 5 to 30 µM. Also, the half-maximal cytotoxic concentration (CC50) at 7 days in series [2] was over 30 µM.
The matching figures for `Cc1cc(NC(=O)c2ccn(C)c2C(F)(F)C(=O)N2CCC(O)CC2)ccc1F` [Example 96, 2-(1,1-difluoro-2-(4-hydroxypiperidin-1-yl)-2-oxoethyl)-N-(4-fluoro-3-methylphenyl)-1-methyl-1H-pyrrole-3-carboxamide]: 5 to 30 µM and over 30 µM.
For `Cc1cc(NC(=O)c2ccc(F)c(C(F)(F)C(=O)NC3CCC(C(=O)O)CC3)c2)ccc1F` (stereo not drawn) [Example 235, (1r,4r)-4-(2,2-difluoro-2-(2-fluoro-5-((4-fluoro-3-methylphenyl)carbamoyl)phenyl)acetamido)cyclohexane-1-carboxylic acid], the EC50 in series [1] lay within 5 to 30 µM. In series [2], the CC50 at 7 days was over 30 µM.
The corresponding values for `CC(C)(C)NC(=O)C(O)c1cc(C(=O)Nc2ccc(F)c(F)c2)ccc1F` (stereo not drawn) [Example 119, 3-(2-(tert-butylamino)-1-hydroxy-2-oxoethyl)-N-(3,4-difluorophenyl)-4-fluorobenzamide] are 5 to 30 µM and 5 to 30 µM.
The corresponding values for `CC[C@@H](C)NC(=O)C(F)(F)c1c(C(=O)Nc2ccc(F)c(C)c2)ccn1C` [Example 110, (R)-2-(2-(sec-butylamino)-1,1-difluoro-2-oxoethyl)-N-(4-fluoro-3-methylphenyl)-1-methyl-1H-pyrrole-3-carboxamide] are over 30 µM and over 30 µM.
Regarding `Cc1cc(NC(=O)c2ccc(F)c(C(F)(F)C(=O)N3CCC(F)(F)C3)c2)ccc1F` [Example 73, 3-(2-(3,3-difluoropyrrolidin-1-yl)-1,1-difluoro-2-oxoethyl)-4-fluoro-N-(4-fluoro-3-methylphenyl)benzamide], in series [1], the EC50 was in the range of 5 to 30 µM. The same compound yielded a CC50 at 7 days in series [2] of 5 to 30 µM.
Take `Cc1cc(NC(=O)c2ccc(F)c(C(F)(F)C(=O)N3CCC(O)C(C)(C)C3)c2)ccc1F` (stereo not drawn) [Example 72]: the EC50 in series [1] is under 5 µM. Further, in series [2], the half-maximal cytotoxic concentration (CC50) at 7 days lay within 5 to 30 µM.
The corresponding values for `Cc1cc(NC(=O)c2ccc(F)c(C(F)(F)C(=O)N3CC[C@H](N)C3)c2)ccc1F` [Example 234, (S)-3-(2-(3-aminopyrrolidin-1-yl)-1,1-difluoro-2-oxoethyl)-4-fluoro-N-(4-fluoro-3-methylphenyl)benzamide] are 5 to 30 µM and over 30 µM.
As for `Cc1cc(NC(=O)c2c(C)cn(C)c2C(F)(F)C(=O)NC(C)(C)C)ccc1F` [Example 114, 2-(2-(tert-butylamino)-1,1-difluoro-2-oxoethyl)-N-(4-fluoro-3-methylphenyl)-1,4-dimethyl-1H-pyrrole-3-carboxamide], the EC50 in series [1] was over 30 µM. Besides, the CC50 at 7 days in series [2] is over 30 µM.
In the case of `O=C(Nc1ccc(F)c(F)c1)c1ccc(Cl)c(C(F)(F)C(=O)N2CCC(O)CC2)c1` [Example 42, 4-chloro-3-(1,1-difluoro-2-(4-hydroxypiperidin-1-yl)-2-oxoethyl)-N-(3,4-difluorophenyl)benzamide], the 50% effective concentration (EC50) in series [1] is under 5 µM. Further, the CC50 at 7 days in series [2] lay within 5 to 30 µM.
The matching figures for `Cc1cc(NC(=O)c2ccc(Cl)c(C(F)(F)C(=O)NC(C)C)c2)ccc1F` [Example 23, 4-chloro-3-(1,1-difluoro-2-(isopropylamino)-2-oxoethyl)-N-(4-fluoro-3-methylphenyl)benzamide]: 5 to 30 µM and 5 to 30 µM.
On to `Cc1cc(NC(=O)c2ccc(F)c(C(F)(F)C(=O)N3CCC(NC(=O)CN4CCC(O)CC4)C(C)(C)C3)c2)ccc1F` (stereo not drawn) [Example 301, 3-(1,1-difluoro-2-(4-(2-(4-hydroxypiperidin-1-yl)acetamido)-3,3-dimethylpiperidin-1-yl)-2-oxoethyl)-4-fluoro-N-(4-fluoro-3-methylphenyl)benzamide], for which the half-maximal effective concentration (EC50) in series [1] is under 5 µM. The compound also showed a half-maximal cytotoxic concentration (CC50) at 7 days in series [2] of 5 to 30 µM.
The matching figures for `Cc1cc(NC(=O)c2ccc(F)c(C(F)(F)C(=O)N3CCc4sc(N)nc4C3)c2)ccc1F` [Example 308, 3-(2-(2-amino-6,7-dihydrothiazolo[4,5-c]pyridin-5(4H)-yl)-1,1-difluoro-2-oxoethyl)-4-fluoro-N-(4-fluoro-3-methylphenyl)benzamide]: under 5 µM and 5 to 30 µM.
The matching figures for `Cc1cc(NC(=O)c2ccc(F)c(C(F)(F)C(=O)N3[C@@H]4CC[C@H]3COC4)c2)ccc1F` [Example 213, 3-(2-((1R,5S)-3-oxa-8-azabicyclo[3.2.1]octan-8-yl)-1,1-difluoro-2-oxoethyl)-4-fluoro-N-(4-fluoro-3-methylphenyl)benzamide]: under 5 µM and over 30 µM.
The corresponding values for `O=C(Nc1ccc(F)c(F)c1)c1ccc(F)c(C(F)(F)C(=O)NCc2cccnc2)c1` [Example 66, 3-(1,1-difluoro-2-oxo-2-((pyridin-3-ylmethyl)amino)ethyl)-N-(3,4-difluorophenyl)-4-fluorobenzamide] are 5 to 30 µM and over 30 µM.
In the case of `Cc1cc(NC(=O)c2ccc(F)c(C(F)(F)C(=O)N3C4COCC3CC(=NO)C4)c2)ccc1F` [Example 273, 3-(1,1-difluoro-2-(7-(hydroxyimino)-3-oxa-9-azabicyclo[3.3.1]nonan-9-yl)-2-oxoethyl)-4-fluoro-N-(4-fluoro-3-methylphenyl)benzamide], the concentration giving a half-maximal response (EC50) in series [1] was under 5 µM. For the same compound, the CC50 at 7 days in series [2] was 5 to 30 µM.
